The species entered for one series is Danio rerio. Kind of series: Protection against neomycin-induced hair cell death in AB zebra fish larvae assessed as increase in hair cell survival preincubated for 1 hr followed by neomycin challenge for 1 hr by DASPEI staining-based epifluorescence dissecting microscopic method. Type of series: functional.
Series [1] addresses Voltage-gated inwardly rectifying potassium channel KCNH2 (Homo sapiens, UniProt Q12809).
Description: Inhibition of human ERG expressed in HEK293 cells assessed as decrease in peak tail current amplitude by path clamp method
A short description of series [2]: Aqueous solubility of compound at pH 7.4. Type of series: physicochemical.
Series [3] deals with Rattus norvegicus. Kind of series: Acute toxicity in rat at 50 mg/kg, iv. Type of series: organism-based. The following applies: in vivo.
Series [4] in a line: Ratio of IC50 for human ERG expressed in HEK293 cells to HC50 for protection against neomycin-induced hair cell death in AB zebra fish larvae.
Another series addresses Cytochrome P450 2C9 (Homo sapiens, UniProt P11712). Description: Inhibition of CYP2C9 (unknown origin). Type of series: ADME. The following applies: human.
For a further series, the target named is Cytochrome P450 2C19 (Homo sapiens, UniProt P33261). Kind of series: Inhibition of CYP2C19 (unknown origin). Type of series: ADME. The following applies: human.
Another series deals with Cytochrome P450 2D6 (Homo sapiens, UniProt P10635). Description: Inhibition of CYP2D6 (unknown origin). Type of series: ADME. The conditions noted are these: human.
A further series deals with Cytochrome P450 3A4 (Homo sapiens, UniProt P08684). Description: Inhibition of CYP3A4 (unknown origin). The series is classed as ADME. The conditions noted are these: human.
For series [5], the system named is Plasma. Kind of series: (§1) Protein binding in human plasma. The series is classed as ADME, cell-free.
For series [6], the system named is Plasma. Description: (§2) Protein binding in rat plasma. The series is classed as ADME, cell-free.
The species named for series [7] is Rattus norvegicus. Kind of series: (§3) Elimination half life in rat by LC-MS method. Type of series: ADME. The following applies: in vivo.
Another series relates to HepG2. Description: Cytotoxicity against human HepG2 cells assessed as decrease in cell growth after 72 hrs by celltiter glo assay. Type of series: cell-based. The conditions noted are these: HepG2, 72 h. Background: ATP-based viability assays read luminescence as a measure of living cells.
A short description of series [8]: Drug metabolism assessed as air oxidation. Type of series: physicochemical.
Series [9] deals with Rattus norvegicus. Description: (§4) Oral bioavailability in rat at 25 mg/kg. The series is classed as ADME, organism-based. The conditions noted are these: in vivo.
Series [10] can be described thus: as §1. The following applies: read-out: PPB. Type of series: ADME, cell-free.
Series [11] in a line: as §2. Type of series: ADME, cell-free. The following applies: read-out: PPB.
Series [12] can be described thus: as §3. The series is classed as ADME. The following applies: in vivo, read-out: beta t1/2 (converted).
Series [13] is described as follows: as §4. The series is classed as ADME, organism-based. The following applies: in vivo.
The subject of series [14] is Escherichia coli. Description: Effect on neomycin MIC for Escherichia coli ATCC 25922. Type of series: functional.
The test system of series [15] is Escherichia coli. Description: Effect on neomycin MBC for Escherichia coli ATCC 25922. The series is classed as functional.
The test system of series [16] is Rattus norvegicus. Description: Protection against kanamycin-induced hearing loss at 8 to 32 kHz in Sprague-Dawley rat at 25 mg/kg/day, ip treated for 14 days followed by recovery without treatment for additional 14 days by auditory brain stem response assay. The series is classed as functional, organism-based.
[17] abbreviates: aqueous medium, read-out: solubility.

≈ marks a conversion by molar mass, not a printed value. Calls of active or inactive are those of the source. No cut-off for these calls is given here.

Sequence of Voltage-gated inwardly rectifying potassium channel KCNH2 (Q12809 whole entry): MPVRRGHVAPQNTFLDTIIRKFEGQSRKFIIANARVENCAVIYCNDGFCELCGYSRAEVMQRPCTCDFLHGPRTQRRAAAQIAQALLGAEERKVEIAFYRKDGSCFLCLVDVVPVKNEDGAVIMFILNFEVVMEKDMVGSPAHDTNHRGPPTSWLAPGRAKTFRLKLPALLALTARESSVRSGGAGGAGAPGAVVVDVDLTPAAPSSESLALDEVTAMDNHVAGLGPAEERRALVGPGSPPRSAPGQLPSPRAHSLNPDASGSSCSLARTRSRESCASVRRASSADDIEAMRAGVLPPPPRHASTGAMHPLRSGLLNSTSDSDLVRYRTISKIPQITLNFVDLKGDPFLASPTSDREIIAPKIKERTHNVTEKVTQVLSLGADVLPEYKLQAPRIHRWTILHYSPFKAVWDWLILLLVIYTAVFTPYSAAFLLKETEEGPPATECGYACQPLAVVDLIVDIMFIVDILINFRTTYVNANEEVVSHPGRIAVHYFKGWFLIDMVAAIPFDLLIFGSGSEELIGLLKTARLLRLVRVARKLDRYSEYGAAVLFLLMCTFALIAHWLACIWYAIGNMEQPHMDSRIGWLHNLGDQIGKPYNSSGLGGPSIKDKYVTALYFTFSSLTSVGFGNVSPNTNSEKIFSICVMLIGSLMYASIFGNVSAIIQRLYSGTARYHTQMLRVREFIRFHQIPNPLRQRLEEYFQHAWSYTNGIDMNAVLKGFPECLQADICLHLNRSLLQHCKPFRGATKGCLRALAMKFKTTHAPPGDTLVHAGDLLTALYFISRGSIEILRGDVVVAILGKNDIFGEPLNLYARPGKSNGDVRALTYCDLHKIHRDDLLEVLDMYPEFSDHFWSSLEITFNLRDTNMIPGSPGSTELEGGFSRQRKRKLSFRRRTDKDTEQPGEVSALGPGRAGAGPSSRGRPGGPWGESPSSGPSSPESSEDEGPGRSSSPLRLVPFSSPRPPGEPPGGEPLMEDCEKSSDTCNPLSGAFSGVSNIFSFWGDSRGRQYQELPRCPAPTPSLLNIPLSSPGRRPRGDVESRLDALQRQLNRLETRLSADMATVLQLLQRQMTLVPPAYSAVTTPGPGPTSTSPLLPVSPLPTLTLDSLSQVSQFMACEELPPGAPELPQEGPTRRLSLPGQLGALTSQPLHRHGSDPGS
Sequence of Cytochrome P450 2C9 (P11712 whole entry): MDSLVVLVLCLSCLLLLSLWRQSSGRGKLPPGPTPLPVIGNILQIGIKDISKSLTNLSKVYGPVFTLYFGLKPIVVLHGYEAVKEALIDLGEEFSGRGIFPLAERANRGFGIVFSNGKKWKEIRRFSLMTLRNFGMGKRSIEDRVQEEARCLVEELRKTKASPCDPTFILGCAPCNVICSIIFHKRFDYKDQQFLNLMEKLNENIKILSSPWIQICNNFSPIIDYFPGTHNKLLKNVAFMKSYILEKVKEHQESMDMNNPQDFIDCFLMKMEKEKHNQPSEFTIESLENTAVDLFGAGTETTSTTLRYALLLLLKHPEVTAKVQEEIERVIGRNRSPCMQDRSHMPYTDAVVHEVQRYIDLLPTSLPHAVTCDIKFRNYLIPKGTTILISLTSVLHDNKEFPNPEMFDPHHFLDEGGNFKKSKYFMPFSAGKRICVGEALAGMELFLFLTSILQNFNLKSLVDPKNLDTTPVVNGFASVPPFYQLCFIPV
Sequence of Cytochrome P450 2C19 (P33261 whole entry): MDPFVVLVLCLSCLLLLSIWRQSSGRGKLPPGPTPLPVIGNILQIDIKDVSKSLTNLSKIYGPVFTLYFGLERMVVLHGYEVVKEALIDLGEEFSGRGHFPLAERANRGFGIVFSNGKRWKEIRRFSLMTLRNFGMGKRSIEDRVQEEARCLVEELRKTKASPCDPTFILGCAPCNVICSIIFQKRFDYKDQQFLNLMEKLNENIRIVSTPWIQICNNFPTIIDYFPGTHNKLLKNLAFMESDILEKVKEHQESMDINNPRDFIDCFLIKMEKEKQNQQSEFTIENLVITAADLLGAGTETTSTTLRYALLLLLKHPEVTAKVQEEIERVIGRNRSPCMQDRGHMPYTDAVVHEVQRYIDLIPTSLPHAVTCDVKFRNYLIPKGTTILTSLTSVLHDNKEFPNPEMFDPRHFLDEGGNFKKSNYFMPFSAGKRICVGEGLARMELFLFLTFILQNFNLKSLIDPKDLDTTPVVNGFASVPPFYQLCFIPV
Sequence of Cytochrome P450 3A4 (P08684 whole entry): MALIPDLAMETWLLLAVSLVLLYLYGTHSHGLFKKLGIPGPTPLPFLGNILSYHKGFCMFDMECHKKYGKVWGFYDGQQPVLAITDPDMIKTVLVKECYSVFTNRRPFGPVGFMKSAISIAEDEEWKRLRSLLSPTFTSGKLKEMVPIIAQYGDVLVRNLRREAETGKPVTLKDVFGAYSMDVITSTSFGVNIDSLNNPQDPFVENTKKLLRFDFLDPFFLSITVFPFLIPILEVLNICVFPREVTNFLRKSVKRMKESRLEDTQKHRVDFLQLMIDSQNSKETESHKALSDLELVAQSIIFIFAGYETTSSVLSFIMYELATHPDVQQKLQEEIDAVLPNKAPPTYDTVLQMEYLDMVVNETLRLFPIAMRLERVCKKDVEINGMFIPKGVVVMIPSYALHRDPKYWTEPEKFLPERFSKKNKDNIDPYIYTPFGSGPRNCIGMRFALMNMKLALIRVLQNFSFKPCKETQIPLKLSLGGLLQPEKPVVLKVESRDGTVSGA
Sequence of Cytochrome P450 2D6 (P10635 whole entry): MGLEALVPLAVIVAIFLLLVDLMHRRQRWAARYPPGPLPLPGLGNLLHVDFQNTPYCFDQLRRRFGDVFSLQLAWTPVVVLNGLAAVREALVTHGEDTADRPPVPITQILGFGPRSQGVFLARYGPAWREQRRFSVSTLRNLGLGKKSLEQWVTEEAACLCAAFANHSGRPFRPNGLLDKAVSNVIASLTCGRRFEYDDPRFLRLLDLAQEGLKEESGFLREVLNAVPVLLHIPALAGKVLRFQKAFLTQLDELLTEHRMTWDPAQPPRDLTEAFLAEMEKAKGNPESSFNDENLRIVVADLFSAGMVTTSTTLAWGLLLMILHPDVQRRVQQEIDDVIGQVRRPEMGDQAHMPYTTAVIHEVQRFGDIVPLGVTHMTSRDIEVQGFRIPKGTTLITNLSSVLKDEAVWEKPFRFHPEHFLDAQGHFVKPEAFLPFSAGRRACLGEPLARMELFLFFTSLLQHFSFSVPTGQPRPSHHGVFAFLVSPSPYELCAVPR

In the case of `NC(=O)c1c(NC(=O)Nc2ccc(Cl)cc2)sc2c1CC[N+]1(CCOCC1)C2`, in the series listed under Danio rerio, the EC50 – broadly, the concentration at which the effect is half-maximal – was 1.21 µM. Also, in [1], the IC50 – broadly, the point on the concentration scale where inhibition reaches its midpoint – is 12.4 µM.
In the case of `CCN1CCc2c(sc(NC(=O)Nc3ccc(Cl)cc3)c2C(N)=O)C1` [listing 1 of 2 here], the solubility (usually the dissolved amount per volume that the medium holds) in series [2] (buffer) was 85 µM (≈ 32.2 µg/mL).
Compound `CC1(C)Cc2c(sc(NC(=O)Nc3ccc(Cl)cc3)c2C(N)=O)C(C)(C)N1` registered a solubility in series [2] (buffer) of 83 µM (≈ 33.8 µg/mL).
For the compound `CC1(C)Cc2c(sc(NC(=O)Nc3ccc(Cl)cc3)c2C(N)=O)C(C)(C)N1.Cl`, the Activity result in the series with Rattus norvegicus [3] was “Non-Toxic”. Besides, the Ratio in series [4] is listed as over 24. Further, in the series filed under Danio rerio, the EC50 was 1.24 µM. In addition, the “inhibition (INH)” value against Cytochrome P450 2C9, at Cytochrome P450 2C19, against Cytochrome P450 2D6 and against Cytochrome P450 3A4 was “Not Active” throughout. In addition, in series [2] (buffer), the solubility came to 13 µM. The PPB stood at 96.5% with Plasma [5] and 95.8% in the series on Plasma [6]. For the same compound, the “beta t1/2” value in the series filed under Rattus norvegicus [7] is 6.2 h. The IC50 in the series on HepG2 was over 300 µM; in [1] it was over 30 µM. For the same compound, in series [8], the Drug metabolism entry is reported as “Metabolite_Notdetected”. Further, in the series on Rattus norvegicus [9], the F was found to be 21%.
For `CCN1CCc2c(sc(NC(=O)Nc3ccc(Cl)cc3)c2C(N)=O)C1.Cl`, the Activity entry in the series with Rattus norvegicus [3] is listed as “Non-Toxic”. Moreover, the 50% effective concentration (EC50) in the series filed under Danio rerio turned out to be 3.12 µM. Moreover, the PPB is reported as 95.9% with Plasma [5] and 94.1% with Plasma [6]. Moreover, the “beta t1/2” value in the series filed under Rattus norvegicus [7] stood at 2.1 h. Also, the IC50 with HepG2 was over 300 µM; in [1] it was 3.26 µM. In addition, the Drug metabolism result in series [8] is listed as “Metabolite_Detected”. Further, the F in the series on Rattus norvegicus [9] is given as 46%.
As to `CCN1CCc2c(sc(NC(=O)Nc3ccc(Cl)cc3)c2C(=O)OC)C1`, the EC50 in the series filed under Danio rerio was over 25 µM.
Consider `CCN1CCc2c(sc(NC(=O)Nc3cccc(C#N)c3)c2C(N)=O)C1`, for which, in the series filed under Danio rerio, the EC50 came out at 10.3 µM.
With `CN1[C@@H]2CC[C@H]1c1c(sc(NC(=O)Nc3ccc(Cl)cc3)c1C(N)=O)C2` (single isomer, unassigned), the solubility in series [2] (setting [17]) was determined as 76 µM (≈ 29.7 µg/mL).
For the compound `NC(=O)c1c(NC(=O)Nc2ccc(Cl)cc2)sc2c1CCCC2`, the EC50 in the series listed under Danio rerio is over 25 µM.
Regarding `CC(C)(C)CN1CCc2c(sc(NC(=O)Nc3ccc(Cl)cc3)c2C(N)=O)C1`, the concentration giving a half-maximal response (EC50) in the series listed under Danio rerio came out at 5.56 µM.
The same measure, in the same setting: the figure for `C[N+]1(CC2CCCC2)CCc2c(sc(NC(=O)Nc3ccc(Cl)cc3)c2C(N)=O)C1` (configuration not stated) is 0.2 µM.
For the compound `CCN1CCc2sc(NC(=O)Nc3ccc(Cl)cc3)c(C(N)=O)c2C1`, in the series filed under Danio rerio, the EC50 stood at 4.61 µM.
As for `CCC(C)(C)C1CCc2c(sc(NC(=O)Nc3ccc(Cl)cc3)c2C(N)=O)C1` (configuration not stated), in the series filed under Danio rerio, the 50% effective concentration (EC50) was over 25 µM.
For the compound `CCN1CCc2c(sc(NC(=O)Nc3cccc(C)c3)c2C(N)=O)C1`, the EC50 in the series filed under Danio rerio turned out to be 13 µM.
In the case of `NC(=O)c1c(NC(=O)Nc2ccc(Cl)cc2)sc2c1CC[N+]1(CCCC1)C2`, the EC50 in the series filed under Danio rerio was determined as 0.41 µM. In [1], the IC50 turned out to be 3.51 µM.
In the case of `CCN1Cc2sc(NC(=O)Nc3ccc(Cl)cc3)c(C(N)=O)c2C1`, the EC50 in the series listed under Danio rerio came out at 4.34 µM.
With `COCCC[N+]1(C)CCc2c(sc(NC(=O)Nc3ccc(Cl)cc3)c2C(N)=O)C1` (configuration not stated), the EC50 in the series filed under Danio rerio was 0.48 µM.
Turning to `CCN1CCc2c(sc(NC(=O)Nc3ccc(Cl)cc3Cl)c2C(N)=O)C1`, in the series filed under Danio rerio, the EC50 was 11.5 µM.
Take `CC(C)(C)OC(=O)CCCCC[N+]1(C)CCc2c(sc(NC(=O)Nc3ccc(Cl)cc3)c2C(N)=O)C1` (configuration not stated): the EC50 in the series listed under Danio rerio was determined as 0.11 µM.
The same measure, in the same setting: the figure for `CCN1CCc2c(sc(NC(=O)Nc3ccc(C(F)(F)F)cc3)c2C(N)=O)C1` is 2.91 µM.
With `NC(=O)c1c(NC(=O)Nc2ccc(Cl)cc2)sc2c1CCN(CCCNC(=O)CCc1cccnc1)C2`, the half-maximal effective concentration (EC50) in the series filed under Danio rerio stood at 0.47 µM.
Still for that read-out and setting: with `C[N+]1(CC2CC2)CCc2c(sc(NC(=O)Nc3ccc(Cl)cc3)c2C(N)=O)C1` (configuration not stated) the figure was 0.36 µM.
Take `NC(=O)c1c(NC(=O)Nc2ccc(Cl)cc2)sc2c1CCN(CCCNC(=O)CCc1c[nH]c3ccccc13)C2`: in the series on Rattus norvegicus [3], the Activity result is recorded as “Non-Toxic”. Further, the Ratio in series [4] came to 201. For the same compound, the EC50 in the series listed under Danio rerio came to 0.1 µM. Also, in [2] (setting [17]), the solubility came to 86 µM (≈ 49.8 µg/mL). Further, the fraction unbound in series [10] and in series [11] was 0.001 throughout. In addition, the half-life in [12] was 7.1 h. The IC50 in the series with HepG2 worked out at 17 µM; in [1], 20.1 µM. Also, the Drug metabolism result in series [8] is listed as “Metabolite_Detected”. Further, the bioavailability (usually the share of a dose that reaches the circulation, judged against a reference dose that is usually intravenous) in [13] was over 1%.
Take `NC(=O)c1c(NC(=O)Nc2ccc(Cl)cc2)sc2c1CCN(CC1CCCC1)C2`: in the series filed under Danio rerio, the EC50 is 1.83 µM.
As for `CC(C)(C)OC(=O)N1CCc2c(sc(NC(=O)Nc3ccc(Cl)cc3)c2C(N)=O)C1`, in the series filed under Danio rerio, the EC50 was over 25 µM.
Regarding `CC[N+]1(C)CCc2c(sc(NC(=O)Nc3ccc(Cl)cc3)c2C(N)=O)C1` (configuration not stated), the EC50 in the series listed under Danio rerio was 1.96 µM. In addition, the IC50 in series [1] was 3.38 µM.
As to `CCCN1CCc2c(sc(NC(=O)Nc3ccc(Cl)cc3)c2C(N)=O)C1`, the EC50 in the series listed under Danio rerio was determined as 3.5 µM.
The same measure, in the same setting: the figure for `O=C(Cc1ccc(Cl)cc1)Nc1nc(C(=O)N2CCCCC2)cs1` is over 25 µM; for `CCN1CCc2sc(NC(=O)Nc3ccc(Cl)cc3)c(C(N)=O)c2CC1` it is 5.8 µM; for `CN1[C@H]2CC[C@@H]1c1sc(NC(=O)Nc3ccc(Cl)cc3)c(C(N)=O)c1C2` (single isomer, unassigned) it is 0.27 µM.
On the same count and under the same terms, with `CCN1CCc2c(sc(NC(=O)Nc3ccccc3)c2C(N)=O)C1` the figure was over 25 µM.
For `CCN1CCc2c(sc(NC(=O)Nc3ccc(Cl)cc3)c2C(N)=O)C1` [listing 2 of 2 here], the outcome in the series on Escherichia coli [14] and in the series on Escherichia coli [15] was inactive. Also, the result in the series with Rattus norvegicus [16] was Active.
In the case of `CCN1CCc2c(sc(NC(=O)[C@@H]3CCCN3)c2C(N)=O)C1`, the concentration for a half-maximal effect (EC50) in the series listed under Danio rerio is over 25 µM.
For `CCN1CCc2c(sc(NC(=O)Nc3ccc(Br)cc3)c2C(N)=O)C1`, the EC50 in the series listed under Danio rerio turned out to be 3.13 µM.
Regarding `CCN1CCc2c(sc(NC(=O)NCCN3CCOCC3)c2C(N)=O)C1`, the EC50 in the series listed under Danio rerio is over 25 µM.

(Values after ChEMBL document CHEMBL4043273, “Phenotypic Optimization of Urea-Thiophene Carboxamides To Yield Potent, Well Tolerated, and Orally Active Protective Agents against Aminoglycoside-Induced Hearing Loss” (J Med Chem, 2018).)
